# According to ChEMBL document CHEMBL3784933, “Synthesis and antitumor evaluation of trimethoxyanilides based on 4(3H)-quinazolinone scaffolds” (2016):
# How the values were obtained:
# Type in all cases: functional
# [1] = Cytotoxicity against human SF539 cells assessed as growth inhibition at 10 uM after 48 hrs by SRB assay; details: SF-539, 48 h, read-out: GI
# K562 = experiment: Cytotoxicity against human K562 cells assessed as growth inhibition at 10 uM after 48 hrs by SRB assay; details: K562, 48 h, read-out: GI
# [2] = Cytotoxicity against human RPMI8226 cells assessed as growth inhibition at 10 uM after 48 hrs by SRB assay; details: RPMI-8226, 48 h, read-out: GI
# [3] = Cytotoxicity against human UACC62 cells assessed as growth inhibition at 10 uM after 48 hrs by SRB assay; details: UACC-62, 48 h, read-out: GI
# A549 = experiment: Cytotoxicity against human A549 cells assessed as growth inhibition at 10 uM after 48 hrs by SRB assay; details: A549, 48 h, read-out: GI
# [4] = Cytotoxicity against human SF295 cells assessed as growth inhibition at 10 uM after 48 hrs by SRB assay; details: SF-295, 48 h, read-out: GI
# MDA-MB-231 = experiment: Cytotoxicity against human MDA-MB-231 cells assessed as growth inhibition at 10 uM after 48 hrs by SRB assay; details: MDA-MB-231, 48 h, read-out: GI
# SN12C = experiment: Cytotoxicity against human SN12C cells assessed as growth inhibition at 10 uM after 48 hrs by SRB assay; details: read-out: GI
# [5] = Cytotoxicity against human OVCAR8 cells assessed as growth inhibition at 10 uM after 48 hrs by SRB assay; details: OVCAR-8, 48 h, read-out: GI
# CCRF-CEM = experiment: Cytotoxicity against human CCRF-CEM cells assessed as growth inhibition at 10 uM after 48 hrs by SRB assay; details: read-out: GI
# [6] = Cytotoxicity against human RXF393 cells assessed as growth inhibition at 10 uM after 48 hrs by SRB assay; details: RXF 393, 48 h, read-out: GI
# [7] = Cytotoxicity against human SF268 cells assessed as growth inhibition at 10 uM after 48 hrs by SRB assay; details: SF-268, 48 h, read-out: GI
# T47D = experiment: Cytotoxicity against human T47D cells assessed as growth inhibition at 10 uM after 48 hrs by SRB assay; details: read-out: GI
# [8] = Cytotoxicity against human Caki1 cells assessed as growth inhibition at 10 uM after 48 hrs by SRB assay; details: CAKI-1, 48 h, read-out: GI
# [9] = Cytotoxicity against human NCI-ADR-RES cells assessed as growth inhibition at 10 uM after 48 hrs by SRB assay; details: read-out: GI
# Malme-3M = experiment: Cytotoxicity against human MALME-3M cells assessed as growth inhibition at 10 uM after 48 hrs by SRB assay; details: read-out: GI
# [10] = Cytotoxicity against human PC3 cells assessed as growth inhibition at 10 uM after 48 hrs by SRB assay; details: PC-3, 48 h, read-out: GI
# [11] = Cytotoxicity against human LOXIMVI cells assessed as growth inhibition at 10 uM after 48 hrs by SRB assay; details: LOX IMVI, read-out: GI
# [12] = Cytotoxicity against human OVCAR5 cells assessed as growth inhibition at 10 uM after 48 hrs by SRB assay; details: OVCAR-5, 48 h, read-out: GI
# [13] = Cytotoxicity against human MOLT4 cells assessed as growth inhibition at 10 uM after 48 hrs by SRB assay; details: MOLT-4, 48 h, read-out: GI
# NCI-H522 = experiment: Cytotoxicity against human NCI-H522 cells assessed as growth inhibition at 10 uM after 48 hrs by SRB assay; details: NCI-H522, 48 h, read-out: GI
# [14] = Cytotoxicity against human Hs 578T cells assessed as growth inhibition at 10 uM after 48 hrs by SRB assay; details: read-out: GI
# ACHN = experiment: Cytotoxicity against human ACHN cells assessed as growth inhibition at 10 uM after 48 hrs by SRB assay; details: read-out: GI
# [15] = Cytotoxicity against human OVCAR4 cells assessed as growth inhibition at 10 uM after 48 hrs by SRB assay; details: OVCAR-4, 48 h, read-out: GI
# NCI-H322M = experiment: Cytotoxicity against human NCI-H322M cells assessed as growth inhibition at 10 uM after 48 hrs by SRB assay; details: read-out: GI
# [16] = Cytotoxicity against human UO31 cells assessed as growth inhibition at 10 uM after 48 hrs by SRB assay; details: UO-31, 48 h, read-out: GI
# [17] = Cytotoxicity against human SW620 cells assessed as growth inhibition at 10 uM after 48 hrs by SRB assay; details: SW-620, 48 h, read-out: GI
# [18] = Cytotoxicity against human HOP92 cells assessed as growth inhibition at 10 uM after 48 hrs by SRB assay; details: HOP-92, 48 h, read-out: GI
# [19] = Cytotoxicity against human BT549 cells assessed as growth inhibition at 10 uM after 48 hrs by SRB assay; details: BT-549, 48 h, read-out: GI
# [20] = Cytotoxicity against human HCT116 cells assessed as growth inhibition at 10 uM after 48 hrs by SRB assay; details: HCT-116, 48 h, read-out: GI
# U-251 = experiment: Cytotoxicity against human U251 cells assessed as growth inhibition at 10 uM after 48 hrs by SRB assay; details: U-251, 48 h, read-out: GI
# [21] = Cytotoxicity against human SNB75 cells assessed as growth inhibition at 10 uM after 48 hrs by SRB assay; details: SNB-75, 48 h, read-out: GI
# 786-0 = experiment: Cytotoxicity against human 786-0 cells assessed as growth inhibition at 10 uM after 48 hrs by SRB assay; details: 786-0, 48 h, read-out: GI
# A498 = experiment: Cytotoxicity against human A498 cells assessed as growth inhibition at 10 uM after 48 hrs by SRB assay; details: A498, 48 h, read-out: GI
# [22] = Cytotoxicity against human SNB19 cells assessed as growth inhibition at 10 uM after 48 hrs by SRB assay; details: SNB-19, 48 h, read-out: GI
smiles,measurement,setting,value
COc1cc(NC(=O)CCSc2nc3ccc(C)cc3c(=O)n2-c2ccccc2)cc(OC)c1OC,inhibition of growth at 10 µM,[1],17%
same,inhibition of growth at 10 µM,K562,10%
same,inhibition of growth at 10 µM,[2],27%
same,inhibition of growth at 10 µM,[3],24%
same,inhibition of growth at 10 µM,A549,15%
same,inhibition of growth at 10 µM,[4],13%
same,inhibition of growth at 10 µM,MDA-MB-231,53%
same,inhibition of growth at 10 µM,SN12C,17%
same,inhibition of growth at 10 µM,[5],16%
same,inhibition of growth at 10 µM,CCRF-CEM,35%
same,inhibition of growth at 10 µM,[6],29%
same,inhibition of growth at 10 µM,[7],34%
same,inhibition of growth at 10 µM,T47D,19%
same,inhibition of growth at 10 µM,[8],29%
same,inhibition of growth at 10 µM,[9],26%
same,inhibition of growth at 10 µM,Malme-3M,13%
same,inhibition of growth at 10 µM,[10],36%
same,inhibition of growth at 10 µM,[11],62%
same,inhibition of growth at 10 µM,[12],12%
same,inhibition of growth at 10 µM,[13],43%
same,inhibition of growth at 10 µM,NCI-H522,80%
same,inhibition of growth at 10 µM,[14],14%
same,inhibition of growth at 10 µM,ACHN,24%
same,inhibition of growth at 10 µM,[15],23%
same,inhibition of growth at 10 µM,NCI-H322M,19%
same,inhibition of growth at 10 µM,[16],47%
same,inhibition of growth at 10 µM,[17],13%
same,inhibition of growth at 10 µM,[18],40%
same,inhibition of growth at 10 µM,[19],12%
same,inhibition of growth at 10 µM,[20],16%
same,inhibition of growth at 10 µM,U-251,20%
same,inhibition of growth at 10 µM,[21],50%
same,inhibition of growth at 10 µM,786-0,21%
same,inhibition of growth at 10 µM,A498,45%
same,inhibition of growth at 10 µM,[22],17%
